Data: patent US7964624B1, “Inhibitors of serine proteases” (priority 2005, dated 2011)

How the values were obtained:
[1] = target: T1, HCV NS3 protease domain (Hepatitis C virus genotype 1b, UniProt Q9WMX2); test: biochemical; settings: Enzyme Assay 1 (HCV NS3 Protease Domain Peptide Cleavage Assay) activity, apparent Ki class
T1 construct: The first 181 amino acids of NS3 (residues 1027-1207 of the viral polyprotein); hexa-histidine (C); made in house; host or cells: E. coli BL21/DE3 pLysS

[2] = target: T2, full-length hepatitis C viral protein NS3•4A (Hepatitis C virus genotype 1a, UniProt P27958); test: biochemical; parameters: species or system HCV sub-type strain 1a; settings: Enzyme Assay 2 (HCV NS3 Peptide Cleavage Assay) activity, apparent Ki class
T2 construct: hexa-histidine (N); made in house; host or cells: Sf9 insect cells (baculovirus, pVL1392)

| SMILES | Ki [1] | Ki [2] |
| --- | --- | --- |
| COc1cc(OC)c(C2=NO[C@]3(C2)C[C@@H](C(=O)NC(CC2CCC2)C(=O)C(=O)NC2CC2)N(C(=O)[C@@H](NC(=O)CC2CCOCC2)C(C)(C)C)C3)cc1Cl (stereo partly drawn) [Compound 282] | > 500 nM | 100 to 500 nM |
| CCC[C@H](NC(=O)[C@@H]1C[C@]2(CC(c3cccc(Cl)c3)=NO2)CN1C(=O)[C@@H](NC(=O)CC1CCCCC1)C(C)(C)C)C(=O)C(=O)N[C@@H](C)c1ccccc1 [Compound 546] | 100 to 500 nM | 100 to 500 nM |
| CCC[C@H](NC(=O)[C@@H]1C[C@]2(CC(c3cccc(Cl)c3)=NO2)CN1C(=O)C(NS(=O)(=O)c1ccc(F)cc1)c1ccccc1)C(=O)C(=O)NC1CC1 (stereo partly drawn) [Compound 466] | > 500 nM | > 500 nM |
| C=C[C@@H]1C[C@]1(NC(=O)[C@@H]1C[C@]2(CC(c3cccc(Cl)c3)=NO2)CN1C(=O)[C@@H](NC(=O)OC1CCCC1)C(C)(C)C)C(=O)NS(=O)(=O)C1CC1 [Compound 190] | 100 to 500 nM | < 100 nM |
| CCC[C@H](NC(=O)[C@@H]1C[C@]2(CC(c3cccc(Cl)c3)=NO2)CN1C(=O)[C@@H](NC(=O)CC1CCCCC1)C(C)(C)C)C(=O)C(=O)NCCc1cccnc1 [Compound 447] | > 500 nM | 100 to 500 nM |
| CNC(=O)C(=O)C(CC1CCC1)NC(=O)[C@@H]1C[C@]2(CC(c3cccc(Cl)c3)=NO2)CN1C(=O)[C@@H](NC(=O)CC1CCOC(C)(C)C1)C(C)(C)C (stereo partly drawn) [Compound 419] | 100 to 500 nM | 100 to 500 nM |
| CCC[C@H](NC(=O)[C@@H]1C[C@]2(CC(c3cccc(Cl)c3)=NO2)CN1C(=O)CCn1c(=O)oc2ccccc21)C(=O)C(=O)NC1CC1 [Compound 376] | > 500 nM | > 500 nM |
| CCC[C@H](NC(=O)[C@@H]1C[C@]2(CC(c3cccc(Cl)c3)=NO2)CN1C(=O)[C@H](Cc1ccsc1)NC(=O)CC1CCCCC1)C(=O)C(=O)NC1CC1 [Compound 185] | > 500 nM | 100 to 500 nM |
| CCC[C@H](NC(=O)[C@@H]1C[C@]2(CC(c3cccc(Cl)c3)=NO2)CN1C(=O)[C@@H](NC(=O)CC1CCCCC1)C(C)(C)C)C(=O)C(=O)NCc1cccnc1 [Compound 408] | > 500 nM | 100 to 500 nM |
| CCC[C@H](NC(=O)[C@@H]1C[C@]2(CC(c3cccc(Cl)c3)=NO2)CN1C(=O)[C@@H](NC(=O)CC1CCCCC1)C(C)(C)C)C(=O)C(=O)Nc1ccc(C)c(C#N)c1 [Compound 96] | > 500 nM | 100 to 500 nM |
| CCC[C@H](NC(=O)[C@@H]1C[C@]2(CC(c3cccc(Cl)c3)=NO2)CN1C(=O)CC(NS(=O)(=O)c1ccc(OC)cc1)C(C)C)C(=O)C(=O)NC1CC1 (stereo partly drawn) [Compound 395] | > 500 nM | > 500 nM |
| CCC[C@H](NC(=O)[C@@H]1C[C@]2(CC(c3cccc(Cl)c3)=NO2)CN1C(=O)[C@@H](NC(=O)CC1CCCCC1)C(C)(C)C)C(=O)C(=O)N(C)CCC [Compound 350] | > 500 nM | > 500 nM |
| CCC[C@H](NC(=O)[C@@H]1C[C@]2(CC(c3cccc(Cl)c3)=NO2)CN1C(=O)C1(C(N)=O)CC1)C(=O)C(=O)NC1CC1 [Compound 227] | > 500 nM | > 500 nM |
| CCOc1c(F)cc(C2=NO[C@]3(C2)C[C@@H](C(=O)N[C@@H](CC2CC2)C(=O)C(N)=O)N(C(=O)[C@@H](NC(=O)CC2CCOCC2)C(C)(C)C)C3)cc1Cl [Compound 67] | < 100 nM | < 100 nM |
| CCC[C@H](NC(=O)[C@@H]1C[C@]2(CC(c3cccc(Cl)c3)=NO2)CN1C(=O)[C@H](Cc1csc2ccccc12)NC(=O)CC1CCCCC1)C(=O)C(=O)NC1CC1 [Compound 336] | > 500 nM | > 500 nM |
| CCC[C@H](NC(=O)[C@@H]1C[C@]2(CC(c3cccc(Cl)c3)=NO2)CN1C(=O)[C@@H](NC(=O)CC1(O)CCCCC1)C(C)(C)C)C(=O)C(=O)NC1CC1 [Compound 233] | 100 to 500 nM | < 100 nM |
| CCC[C@H](NC(=O)[C@@H]1C[C@]2(CC(c3cccc(Cl)c3)=NO2)CN1C(=O)[C@@H](Nc1ccccc1)C(C)(C)C)C(=O)C(=O)NC1CC1 [Compound 172] | > 500 nM | 100 to 500 nM |
| CCC[C@H](NC(=O)[C@@H]1C[C@]2(CC(c3cc(Cl)c4c(c3)OCO4)=NO2)CN1C(=O)[C@@H](NC(=O)CC1CCCCC1)C(C)(C)C)C(=O)C(=O)NC1CC1 [Compound 370] | 100 to 500 nM | < 100 nM |
| CCC[C@H](NC(=O)[C@@H]1C[C@]2(CC(c3cccc(Cl)c3)=NO2)CN1C(=O)CCNS(=O)(=O)c1ccc(NC(C)=O)cc1)C(=O)C(=O)NC1CC1 [Compound 309] | > 500 nM | > 500 nM |
| C=C[C@@H]1C[C@]1(NC(=O)[C@@H]1C[C@]2(CC(c3cccc(Cl)c3)=NO2)CN1C(=O)[C@@H](NC(=O)NC(C)(C)C)C(C)(C)C)C(=O)O [Compound 457] | > 500 nM | > 500 nM |
| CCC[C@H](NC(=O)[C@@H]1C[C@]2(CC(c3cccc(Cl)c3)=NO2)CN1C(=O)[C@@H](NC(=O)CC1CCCCC1)C(C)(C)C)C(=O)C(=O)NCc1nc2ccccc2s1 [Compound 17] | > 500 nM | 100 to 500 nM |

| SMILES | Ki [1] | Ki [2] |
| --- | --- | --- |
| CCC[C@H](NC(=O)[C@@H]1C[C@]2(CC(c3cccc(Cl)c3)=NO2)CN1C(=O)CCN(c1ccccc1)S(=O)(=O)c1ccccc1)C(=O)C(=O)NC1CC1 [Compound 483] | > 500 nM | > 500 nM |
| CCC[C@H](NC(=O)[C@@H]1C[C@]2(CC(c3cncc(Cl)c3)=NO2)CN1C(=O)[C@@H](NC(=O)CC1CCCCC1)C(C)(C)C)C(=O)C(=O)NC1CC1 [Compound 292] | 100 to 500 nM | < 100 nM |
| CCC[C@H](NC(=O)[C@@H]1C[C@]2(CC(c3cccc(Cl)c3)=NO2)CN1C(=O)[C@@H](NC(=O)CC1CCCCC1)C(C)(C)C)C(=O)C(=O)N1CC(OCC)C1 [Compound 133] | 100 to 500 nM | 100 to 500 nM |
| CCC[C@H](NC(=O)[C@@H]1C[C@]2(CC(c3ccc4c(c3)CCC(C)(C)O4)=NO2)CN1C(=O)[C@@H](NC(=O)CC1CCCCC1)C(C)(C)C)C(=O)C(=O)NC1CC1 [Compound 204] | 100 to 500 nM | 100 to 500 nM |
| C#CCCC(NC(=O)[C@@H]1C[C@]2(CC(c3cc(Cl)c(OC)cc3OC)=NO2)CN1C(=O)[C@@H](NC(=O)CC1CCOCC1)C(C)(C)C)C(=O)C(=O)NC1CC1 (stereo partly drawn) [Compound 510] | 100 to 500 nM | < 100 nM |
| CCC[C@H](NC(=O)[C@@H]1C[C@]2(CC(CC)=NO2)CN1C(=O)[C@@H](NC(=O)NC(C)(C)C)C(C)(C)C)C(=O)C(=O)NC1CC1 [Compound 559] | > 500 nM | > 500 nM |
| CCC[C@H](NC(=O)[C@@H]1C[C@]2(CC(c3cnc(OC)c(Cl)c3)=NO2)CN1C(=O)[C@@H](NC(=O)CC1CCCCC1)C(C)(C)C)C(=O)C(=O)NC1CC1 [Compound 312] | < 100 nM | < 100 nM |
| CCC[C@H](NC(=O)[C@@H]1C[C@]2(CC(c3cccc(Cl)c3)=NO2)CN1C(=O)[C@@H](NC(=O)CC1CCCCC1)C(C)(C)C)C(=O)C(=O)NCCc1c[nH]c2cc(OC)ccc12 [Compound 69] | > 500 nM | 100 to 500 nM |
| CCC[C@H](NC(=O)[C@@H]1C[C@]2(CC(c3cccc(Cl)c3)=NO2)CN1C(=O)[C@@H](NC(=O)CC1CCCCC1)C(C)(C)C)C(=O)C(=O)NC1(C(=O)OC)CC1 [Compound 399] | > 500 nM | > 500 nM |
| C=C[C@@H]1C[C@]1(NC(=O)[C@@H]1C[C@]2(CC(c3cccc(Cl)c3)=NO2)CN1C(=O)[C@@H](NC(=O)OC1CCOC1)C(C)(C)C)C(=O)NS(=O)(=O)C1CC1 (stereo partly drawn) [Compound 45] | > 500 nM | 100 to 500 nM |
| CCC[C@H](NC(=O)[C@@H]1C[C@]2(CC(c3cccc(Cl)c3)=NO2)CN1C(=O)[C@@H](NC(=O)CC1CCCCC1)C(C)(C)C)C(=O)C(=O)N1CCC[C@H]1COC [Compound 537] | > 500 nM | > 500 nM |
| CCC[C@H](NC(=O)[C@@H]1C[C@]2(CC(c3cccc(Cl)c3)=NO2)CN1C(=O)[C@@H](NC(=O)CC1(C)CCOCC1)C(C)(C)C)C(=O)C(=O)NC1CC1 [Compound 541] | 100 to 500 nM | < 100 nM |
| CCC[C@H](NC(=O)[C@@H]1C[C@]2(CC(c3cccc(Cl)c3)=NO2)CN1C(=O)[C@@H](NC(=O)CC1CCCCC1)C(C)(C)C)C(=O)C(=O)NC [Compound 493] | 100 to 500 nM | < 100 nM |
| C=C[C@@H]1C[C@]1(NC(=O)[C@@H]1C[C@]2(CC(c3cccc(Cl)c3)=NO2)CN1C(=O)[C@@H](NC(=O)CC1CCCCC1)C(C)(C)C)C(=O)NS(=O)(=O)NC1CC1 [Compound 115] | > 500 nM | 100 to 500 nM |
| CCC[C@H](NC(=O)[C@@H]1C[C@]2(CC(c3ccc(C)c(Cl)c3)=NO2)CN1C(=O)[C@@H](NC(=O)CC1CCCCC1)C(C)(C)C)C(=O)C(=O)NC1CC1 [Compound 3] | 100 to 500 nM | < 100 nM |
| CCC[C@H](NC(=O)[C@@H]1C[C@]2(CC(c3cccc(Cl)c3)=NO2)CN1C(=O)[C@H](NS(=O)(=O)c1ccc(C)cc1)c1ccccc1)C(=O)C(=O)NC1CC1 [Compound 476] | 100 to 500 nM | 100 to 500 nM |
| CCC[C@H](NC(=O)[C@@H]1C[C@]2(CC(c3cc(F)c(OCC)c(Cl)c3)=NO2)CN1C(=O)[C@@H](NC(=O)CC1CCOCC1)C(C)(C)C)C(=O)C(=O)NC1CC1 [Compound 411] | 100 to 500 nM | < 100 nM |
| CCC[C@H](NC(=O)[C@@H]1C[C@]2(CC(c3cccc(Cl)c3)=NO2)CN1C(=O)[C@@H](NC(=O)[C@@H]1C[C@H]1c1ccccc1)C(C)(C)C)C(=O)C(=O)NC1CC1 [Compound 271] | 100 to 500 nM | < 100 nM |
| CCC[C@H](NC(=O)[C@@H]1C[C@]2(CC(CC)=NO2)CN1C(=O)[C@@H](NC(=O)CC1CCOCC1)C(C)(C)C)C(=O)C(=O)NC1CC1 [Compound 566] | > 500 nM | > 500 nM |
| CCC[C@H](NC(=O)[C@@H]1C[C@]2(CC(c3cccc(Cl)c3)=NO2)CN1C(=O)[C@@H](NC(=O)CC1CCCCC1)C(C)(C)C)C(=O)C(=O)N1CCOCC1 [Compound 410] | > 500 nM | > 500 nM |
| CCC[C@H](NC(=O)[C@@H]1C[C@]2(CC(c3cccc(Cl)c3)=NO2)CN1C(=O)[C@H](Cc1ccccc1F)NC(=O)CC1CCCCC1)C(=O)C(=O)NC1CC1 [Compound 338] | > 500 nM | 100 to 500 nM |
